In PubChem BioAssay (NCI) one finds GI50 and TGI data, which are given here for 41 molecules.

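A five-concentration, 48-hour dose response in 96-well plates underlies each endpoint, interpolated linearly between surrounding concentrations. GI50 is the concentration that inhibits growth by half. TGI: total growth inhibition.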

For the assay, the system named is MDA-MB-468 breast. The experiment in a line: NCI-60 cell line screen, 48 h.

With `COc1cc(C(=O)/C=C/c2c(-c3ccc(F)cc3)nc3ncccn23)cc(OC)c1OC`, the GI50 is 2.75 µM and the TGI amounted to 6.89 µM.
For the molecule `CCOCC(=O)N[C@H]1CCc2cc(OC(=O)COCC)c(OC)c(OC)c2-c2ccc(SC)c(=O)cc21`, the GI50 was 0.0714 µM and the TGI was more than 100 µM.
As for `N#Cc1c(NC(=O)c2cccc3ccccc23)sc2c1CCCC2`, the GI50 is 0.154 µM and the TGI is more than 7.22 µM.
Regarding `CC(=O)Nc1ccc2c(c1)C(=O)c1cccc(F)c1-2`, the GI50 is 15.2 µM and the TGI came to 45.8 µM.
For `COc1cc(OC)c2cc(C(=O)O)c(=O)oc2c1`, in that order: more than 100 µM and more than 100 µM.
For `CCN(CC)CCCNc1nc2ccccc2c2c(=O)c3cc(Cl)ccc3sc12`, in that order: 1.59 µM and 4.85 µM.
The corresponding values for `COc1ccc(N(C)c2nc(Cl)nc3ccn(C)c23)cc1` are less than 0.01 µM and more than 100 µM.
With `COc1ccc(Cn2cnc3cc(C(=O)Nc4cccc5ccccc45)ccc32)c(OC)c1`, the GI50 was 0.0358 µM and the TGI stood at 2.42 µM.
The corresponding values for `O=C1/C(=C/c2ccc(Cl)cc2)CN(Cc2cn(CCNc3ccnc4cc(Cl)ccc34)nn2)C/C1=C\c1ccc(Cl)cc1` are 0.234 µM and 0.644 µM.
The corresponding values for `CC(C)=CCc1ccc(O)c(=O)cc1C(C)C` are 0.868 µM and 5.36 µM.
For `COc1cc(C2CC(c3ccc(Nc4ccnc5cc(Cl)ccc45)cc3)=NN2C=O)cc(OC)c1OC` (configuration not stated), the GI50 was 1.83 µM and the TGI came to 4.38 µM.
For `CC1(C)N=C(N)N=C(N)N1c1ccc(OCC(=O)N2CCOCC2)c(Cl)c1`, in that order: 1.23 µM and more than 100 µM.
For `NC(N)=N/N=C(/c1ccccc1)c1ccc(Cl)cc1`, in that order: 2.4 µM and 13 µM.
The corresponding values for `COc1cc2c(cc1OCCCCCn1c(-c3ccco3)nc3ccccc31)N=C[C@@H]1CCCN1C2=O` are less than 0.01 µM and less than 0.01 µM.
With `COc1ccc(/C(=N\O)c2cc(OC)c(OC)c(OC)c2)c(OC)c1N`, the GI50 is 3.99 µM and the TGI was more than 100 µM.
The corresponding values for `COc1ccc2c(c1)C(=O)/C(=C/c1ccc([N+](=O)[O-])s1)O2` are 0.291 µM and 1.36 µM.
The corresponding values for `Cn1ccnc1C(=O)/C=C/c1ccc(C(=O)Nc2ccccc2O)cc1` are 1.6 µM and 3.67 µM.
For `Cc1ccc(NSc2ccccc2[N+](=O)[O-])cc1`, in that order: 0.57 µM and 16.3 µM.
On to `COc1ccc(Cn2cc3c(c2-c2ccc(O)cc2)CCc2cnoc2-3)cc1`, for which the GI50 was 0.245 µM and the TGI is 1.25 µM.
The corresponding values for `O=c1oc2ccc(F)cc2c(=O)n1-c1ccc(Cl)cc1F` are 1.51 µM and 5.31 µM.
Regarding `O=C1CSC(=S)N1Cc1cccnc1`, the GI50 was 3.82 µM and the TGI came to 17 µM.
The corresponding values for `Cc1ccc(/C=C/C(=O)c2ccc(N)cc2)c(C)c1` are 2.41 µM and 5.13 µM.
Consider `C=C(C)[C@@H]1CC[C@]2(C(=O)O)CC[C@]3(C)[C@H](CC[C@@H]4[C@@]5(C)C[C@@H](CC#Cc6ccc(Br)cc6)C(=O)C(C)(C)[C@@H]5CC[C@]43C)[C@@H]12`, for which the GI50 was 7.25 µM and the TGI was 33.5 µM.
For `COc1cc(Nc2ncc3c(C)nc(-c4cccc(Oc5ccccc5)c4)n3n2)cc(OC)c1OC`, in that order: 2.98 µM and 18.4 µM.
The corresponding values for `O=C(Nc1cccnc1)c1cccc([N+](=O)[O-])c1` are more than 100 µM and more than 100 µM.
The corresponding values for `O=C(Nc1cccc([N+](=O)[O-])c1)c1ccc2ccccc2c1O` are 3.38 µM and 71.3 µM.
For the molecule `O=C(CC(O)c1ccncc1)c1ccccc1` (configuration not stated), the GI50 is 24.3 µM and the TGI was more than 100 µM.
For `O=C1/C(=C/c2ccc([N+](=O)[O-])o2)Oc2ccccc21`, in that order: 1.17 µM and 2.94 µM.
For `CCCCCCCCCCCCSC(=NC)NC`, in that order: 1.47 µM and 3.14 µM.
For `CCCCCCCCCCCCCCCCOC(=O)c1c(C)[nH]c(/C=C2\N=C(c3ccc[nH]3)C=C2OC)c1C`, in that order: 1.66 µM and 5.29 µM.
As for `O=C1Nc2ccccc2/C1=C/c1cn(C(=O)c2c(Cl)cccc2Cl)c2ccccc12`, the GI50 is 4.52 µM and the TGI came to 20.1 µM.
For `O=c1[nH]ccc2nc(-c3ccc(CN4CCC(c5nc(-c6ccccn6)n[nH]5)CC4)cc3)c(-c3ccccc3)cc12`, in that order: 0.0887 µM and 7.14 µM.
For `CS(=O)(=O)Nc1cccc(-c2ccc3c(NC(=O)C4CC4)n[nH]c3c2)c1`, in that order: 0.622 µM and 24.8 µM.
`COc1ccc2cc3[n+](cc2c1OC)CCc1cc2c(cc1-3)OCO2`: the GI50 is 0.675 µM and the TGI came to 6.78 µM.
For `Cc1cc(O)ccc1O`, in that order: 13.3 µM and 27.3 µM.
The corresponding values for `CCC1=Cc2cc(OC)ccc2OC12C=Cc1cc(OC)ccc1O2` (configuration not stated) are 0.436 µM and more than 100 µM.
For `O=C(NCC(=O)N1CC[C@H](NC2CCC(O)(c3ccc(-c4ncccn4)cn3)CC2)C1)c1cccc(C(F)(F)F)c1` (some centres not stated), in that order: 19.6 µM and 95.4 µM.
For `O=C(N/N=c1/ccoc2cccnc12)N1CCN(c2ncccn2)CC1`, the GI50 was less than 0.01 µM and the TGI is 1.34 µM.
For `O=C(Nc1ccc(Cl)cc1)c1ccc([N+](=O)[O-])o1`, in that order: 3.08 µM and 14.9 µM.
In the case of `Cc1cc(NCCCCNc2ccnc3cc(Cl)ccc23)nc(Nc2ccc(C(=O)N3CCCC3)cc2)n1`, the GI50 is 1.82 µM and the TGI stood at 4.04 µM.
Consider `CC1CC(C)/C(=N/NC(N)=O)C(C(O)CC2CCC(=O)NC2=O)C1` (configuration not stated), for which the GI50 is 9.15 µM and the TGI is more than 100 µM.
